From ChEMBL document CHEMBL2380212, “Synthesis, single crystal and antitumor activities of benzimidazole-quinazoline hybrids” (Bioorg Med Chem Lett, 2013)

Assays:
[1] = n-Octanol-phosphate buffer partition coefficient, log P of the compound at pH 7.4 by shake flask method; type: physicochemical
[2] = tested on: MDA-MB-468; experiment: Cytotoxicity against human MDA-MB-468 cells at 10 uM after 48 hrs by SRB assay; type: functional; details: MDA-MB-468, 48 h, read-out: GI
[3] = tested on: T47D; experiment: Cytotoxicity against human T47D cells at 10 uM after 48 hrs by SRB assay; type: functional; details: read-out: GI
[4] = tested on: MDA-MB-231; experiment: Cytotoxicity against human MDA-MB-231 cells at 10 uM after 48 hrs by SRB assay; type: functional; details: MDA-MB-231, 48 h, read-out: GI
[5] = tested on: UO-31; experiment: Cytotoxicity against human UO31 cells at 10 uM after 48 hrs by SRB assay; type: functional; details: UO-31, 48 h, read-out: GI
[6] = tested on: PC-3; experiment: Cytotoxicity against human PC3 cells at 10 uM after 48 hrs by SRB assay; type: functional; details: PC-3, 48 h, read-out: GI
[7] = tested on: TK-10; experiment: Cytotoxicity against human TK10 cells at 10 uM after 48 hrs by SRB assay; type: functional; details: TK-10, 48 h, read-out: GI
[8] = tested on: SN12C; experiment: Cytotoxicity against human SN12C cells at 10 uM after 48 hrs by SRB assay; type: functional; details: read-out: GI
[9] = tested on: ACHN; experiment: Cytotoxicity against human ACHN cells at 10 uM after 48 hrs by SRB assay; type: functional; details: read-out: GI
[10] = tested on: A498; experiment: Cytotoxicity against human A498 cells at 10 uM after 48 hrs by SRB assay; type: functional; details: A498, 48 h, read-out: GI
[11] = tested on: 786-0; experiment: Cytotoxicity against human 786-0 cells at 10 uM after 48 hrs by SRB assay; type: functional; details: 786-0, 48 h, read-out: GI
[12] = tested on: SK-OV-3; experiment: Cytotoxicity against human SKOV3 cells at 10 uM after 48 hrs by SRB assay; type: functional; details: SK-OV-3, 48 h, read-out: GI
[13] = tested on: NCI/ADR-RES; experiment: Cytotoxicity against human NCI/ADR-RES cells at 10 uM after 48 hrs by SRB assay; type: functional; details: read-out: GI
[14] = tested on: OVCAR-8; experiment: Cytotoxicity against human OVCAR8 cells at 10 uM after 48 hrs by SRB assay; type: functional; details: OVCAR-8, 48 h, read-out: GI
[15] = tested on: OVCAR-5; experiment: Cytotoxicity against human OVCAR5 cells at 10 uM after 48 hrs by SRB assay; type: functional; details: OVCAR-5, 48 h, read-out: GI
[16] = tested on: IGROV-1; experiment: Cytotoxicity against human IGROV1 cells at 10 uM after 48 hrs by SRB assay; type: functional; details: IGROV-1, 48 h, read-out: GI
[17] = tested on: UACC-62; experiment: Cytotoxicity against human UACC62 cells at 10 uM after 48 hrs by SRB assay; type: functional; details: UACC-62, 48 h, read-out: GI
[18] = tested on: SK-MEL-28; experiment: Cytotoxicity against human SK-MEL-28 cells at 10 uM after 48 hrs by SRB assay; type: functional; details: SK-MEL-28, 48 h, read-out: GI
[19] = tested on: SK-MEL-5; experiment: Cytotoxicity against human SK-MEL-5 cells at 10 uM after 48 hrs by SRB assay; type: functional; details: SK-MEL-5, 48 h, read-out: GI
[20] = tested on: M14; experiment: Cytotoxicity against human M14 cells at 10 uM after 48 hrs by SRB assay; type: functional; details: M14, 48 h, read-out: GI
[21] = tested on: MDA-MB-435; experiment: Cytotoxicity against human MDA-MB-435 cells at 10 uM after 48 hrs by SRB assay; type: functional; details: MDA-MB-435, 48 h, read-out: GI
[22] = tested on: U-251; experiment: Cytotoxicity against human U251 cells at 10 uM after 48 hrs by SRB assay; type: functional; details: U-251, 48 h, read-out: GI
[23] = tested on: LOX IMVI; experiment: Cytotoxicity against human LOXIMVI cells at 10 uM after 48 hrs by SRB assay; type: functional; details: read-out: GI
[24] = tested on: SNB-75; experiment: Cytotoxicity against human SNB75 cells at 10 uM after 48 hrs by SRB assay; type: functional; details: SNB-75, 48 h, read-out: GI
[25] = tested on: SNB-19; experiment: Cytotoxicity against human SNB19 cells at 10 uM after 48 hrs by SRB assay; type: functional; details: SNB-19, 48 h, read-out: GI
[26] = tested on: SF-295; experiment: Cytotoxicity against human SF295 cells at 10 uM after 48 hrs by SRB assay; type: functional; details: SF-295, 48 h, read-out: GI
[27] = tested on: SW-620; experiment: Cytotoxicity against human SW620 cells at 10 uM after 48 hrs by SRB assay; type: functional; details: SW-620, 48 h, read-out: GI
[28] = tested on: KM12; experiment: Cytotoxicity against human KM12 cells at 10 uM after 48 hrs by SRB assay; type: functional; details: KM12, 48 h, read-out: GI
[29] = tested on: HT-29; experiment: Cytotoxicity against human HT-29 cells at 10 uM after 48 hrs by SRB assay; type: functional; details: HT-29, 48 h, read-out: GI
[30] = tested on: HCT-116; experiment: Cytotoxicity against human HCT116 cells at 10 uM after 48 hrs by SRB assay; type: functional; details: HCT-116, 48 h, read-out: GI
[31] = tested on: HCC 2998; experiment: Cytotoxicity against human HCC2998 cells at 10 uM after 48 hrs by SRB assay; type: functional; details: HCC 2998, 48 h, read-out: GI
[32] = tested on: COLO 205; experiment: Cytotoxicity against human COLO205 cells at 10 uM after 48 hrs by SRB assay; type: functional; details: COLO 205, 48 h, read-out: GI
[33] = tested on: NCI-H522; experiment: Cytotoxicity against human NCI-H522 cells at 10 uM after 48 hrs by SRB assay; type: functional; details: NCI-H522, 48 h, read-out: GI
[34] = tested on: NCI-H226; experiment: Cytotoxicity against human NCI-H226 cells at 10 uM after 48 hrs by SRB assay; type: functional; details: NCI-H226, 48 h, read-out: GI
[35] = tested on: NCI-H23; experiment: Cytotoxicity against human NCI-H23 cells at 10 uM after 48 hrs by SRB assay; type: functional; details: NCI-H23, 48 h, read-out: GI
[36] = tested on: HOP-62; experiment: Cytotoxicity against human HOP62 cells at 10 uM after 48 hrs by SRB assay; type: functional; details: HOP-62, 48 h, read-out: GI
[37] = tested on: HOP-92; experiment: Cytotoxicity against human HOP92 cells at 10 uM after 48 hrs by SRB assay; type: functional; details: HOP-92, 48 h, read-out: GI
[38] = Cytotoxicity against human EKVX cells at 10 uM after 48 hrs by SRB assay; type: functional; details: read-out: GI
[39] = tested on: SR; experiment: Cytotoxicity against human SR cells at 10 uM after 48 hrs by SRB assay; type: functional; details: read-out: GI
[40] = tested on: HL-60(TB); experiment: Cytotoxicity against human HL-60(TB) cells at 10 uM after 48 hrs by SRB assay; type: functional; details: HL-60, 48 h, read-out: GI
[41] = tested on: MOLT-4; experiment: Cytotoxicity against human MOLT4 cells at 10 uM after 48 hrs by SRB assay; type: functional; details: MOLT-4, 48 h, read-out: GI
[42] = tested on: RPMI-8226; experiment: Cytotoxicity against human RPMI8226 cells at 10 uM after 48 hrs by SRB assay; type: functional; details: RPMI-8226, 48 h, read-out: GI

Compound: C=CCn1c(C)nc2ccc(Nc3nc(N4CCOCC4)nc4ccccc34)cc21
- logD [1]: 2.81
- inhibition of growth at 10 µM [2]: < 10%
- inhibition of growth at 10 µM [3]: 11.2%
- inhibition of growth at 10 µM [4]: < 10%
- inhibition of growth at 10 µM [5]: 14.7%
- inhibition of growth at 10 µM [6]: 11.4%
- inhibition of growth at 10 µM [7]: < 10%
- inhibition of growth at 10 µM [8]: < 10%
- inhibition of growth at 10 µM [9]: < 10%
- inhibition of growth at 10 µM [10]: 41.2%
- inhibition of growth at 10 µM [11]: < 10%
- inhibition of growth at 10 µM [12]: < 10%
- inhibition of growth at 10 µM [13]: 23.6%
- inhibition of growth at 10 µM [14]: 20.1%
- inhibition of growth at 10 µM [15]: < 10%
- inhibition of growth at 10 µM [16]: < 10%
- inhibition of growth at 10 µM [17]: < 10%
- inhibition of growth at 10 µM [18]: < 10%
- inhibition of growth at 10 µM [19]: < 10%
- inhibition of growth at 10 µM [20]: < 10%
- inhibition of growth at 10 µM [21]: < 10%
- inhibition of growth at 10 µM [22]: < 10%
- inhibition of growth at 10 µM [23]: < 10%
- inhibition of growth at 10 µM [24]: 12.6%
- inhibition of growth at 10 µM [25]: < 10%
- inhibition of growth at 10 µM [26]: < 10%
- inhibition of growth at 10 µM [27]: < 10%
- inhibition of growth at 10 µM [28]: 11.9%
- inhibition of growth at 10 µM [29]: 34.7%
- inhibition of growth at 10 µM [30]: < 10%
- inhibition of growth at 10 µM [31]: < 10%
- inhibition of growth at 10 µM [32]: < 10%
- inhibition of growth at 10 µM [33]: < 10%
- inhibition of growth at 10 µM [34]: < 10%
- inhibition of growth at 10 µM [35]: < 10%
- inhibition of growth at 10 µM [36]: < 10%
- inhibition of growth at 10 µM [37]: < 10%
- inhibition of growth at 10 µM [38]: < 10%
- inhibition of growth at 10 µM [39]: < 10%
- inhibition of growth at 10 µM [40]: 61.9%

Compound: C=CCn1c(C)nc2cc(Nc3nc(N4CCCC4)nc4ccccc34)ccc21
- logD [1]: 2.51
- inhibition of growth at 10 µM [2]: 13.3%
- inhibition of growth at 10 µM [3]: 22.6%
- inhibition of growth at 10 µM [4]: < 10%
- inhibition of growth at 10 µM [5]: 10.1%
- inhibition of growth at 10 µM [6]: 18.2%
- inhibition of growth at 10 µM [7]: < 10%
- inhibition of growth at 10 µM [8]: < 10%
- inhibition of growth at 10 µM [9]: < 10%
- inhibition of growth at 10 µM [10]: 27.6%
- inhibition of growth at 10 µM [11]: 11.1%
- inhibition of growth at 10 µM [12]: < 10%
- inhibition of growth at 10 µM [13]: < 10%
- inhibition of growth at 10 µM [14]: < 10%
- inhibition of growth at 10 µM [15]: < 10%
- inhibition of growth at 10 µM [16]: < 10%
- inhibition of growth at 10 µM [17]: < 10%
- inhibition of growth at 10 µM [18]: < 10%
- inhibition of growth at 10 µM [19]: < 10%
- inhibition of growth at 10 µM [20]: < 10%
- inhibition of growth at 10 µM [21]: < 10%
- inhibition of growth at 10 µM [22]: < 10%
- inhibition of growth at 10 µM [23]: < 10%
- inhibition of growth at 10 µM [24]: < 10%
- inhibition of growth at 10 µM [25]: < 10%
- inhibition of growth at 10 µM [26]: < 10%
- inhibition of growth at 10 µM [27]: < 10%
- inhibition of growth at 10 µM [28]: < 10%
- inhibition of growth at 10 µM [29]: < 10%
- inhibition of growth at 10 µM [30]: < 10%
- inhibition of growth at 10 µM [31]: < 10%
- inhibition of growth at 10 µM [33]: < 10%
- inhibition of growth at 10 µM [34]: 22%
- inhibition of growth at 10 µM [35]: < 10%
- inhibition of growth at 10 µM [36]: < 10%
- inhibition of growth at 10 µM [37]: 15.5%
- inhibition of growth at 10 µM [38]: < 10%
- inhibition of growth at 10 µM [39]: 11%
- inhibition of growth at 10 µM [41]: < 10%
- inhibition of growth at 10 µM [42]: 12.2%
- inhibition of growth at 10 µM [40]: < 10%
